Test results taken from patent US20120059011A1, “PHARMACEUTICAL COMPOSITIONS OF COMBINATIONS OF DIPEPTIDYL PEPTIDASE-4 INHIBITORS WITH PIOGLITAZONE” (priority 2009, published 2012).
Counter-ions that a name gives are not always drawn.

Assay: chemical stability of pioglitazone HCl with lubricants (disproportionation to free base)
Type: physicochemical
Conditions: in contact with lubricants, such as magnesium stearate and sodium stearyl fumarate
Procedure: The pharmaceutical compositions of the present invention are prepared by wet processing methods. In one embodiment the pharmaceutical compositions are prepared by wet granulation methods, such as fluid bed granulation or high-shear granulation. In a class of this embodiment, the pharmaceutical compositions are prepared by fluid-bed granulation. Fluid bed granulation processing has the advantage of affording tablets with higher diametric strength. Further, wet processing methods utilizing an intragranular portion containing Sitagliptin phosphate monohydrate, Pioglitazone HCl, a binding agent, and optionally a disintegrant, enhance the chemical stability of Sitagliptin phosphate monohydrate and pioglitazone HCl. […] The fluid bed granulation method utilizing an intragranular portion containing Pioglitazone HCl, Sitagliptin phosphate monohydrate, a binding agent, and optionally a disintegrant, minimizes the disproportionation of Pioglitazone HCl to the pioglitazone free base.

disproportionation of Pioglitazone HCl to the Pioglitazone free base: react with lubricants
SMILES: CCc1ccc(CCOc2ccc(CC3SC(=O)NC3=O)cc2)nc1 (racemic) [Pioglitazone HCl, [(±)-5-[[4-[2-(5-ethyl-2-pyridinyl)ethoxy]phenyl]-methyl]-2,4-]thiazolidinedione monohydrochloride]
